Source: ChEMBL document CHEMBL1158822, “Anthrabenzoxocinones from Streptomyces sp. as liver X receptor ligands and antibacterial agents” (J Nat Prod, 2005)
In brackets after ≈: the same amount, converted by molar mass.

What was measured:
Enterococcus faecium = test: Antibacterial activity against vancomycin-resistant Enterococcus faecium CL5791; type: functional
Enterococcus faecalis = test: Antibacterial activity against vancomycin-sensitive Enterococcus faecalis CL8516; type: functional
Staphylococcus aureus [1] = test: Antibacterial activity against methicillin-sensitive Staphylococcus aureus MB2685; type: functional
Escherichia coli = test: Antibacterial activity against lpxC mutant gene expressing Escherichia coli MB4902; type: functional
Staphylococcus aureus [2] = test: Inhibition of type II fatty acid synthesis in Staphylococcus aureus using n-octanoyl-CoA and [14C]malonyl CoA substrate
Streptococcus pneumoniae = test: Antibacterial activity against Streptococcus pneumoniae MB212; type: functional
Staphylococcus aureus [3] = test: Antibacterial activity against methicillin-resistant Staphylococcus aureus COL MB5393; type: functional
Staphylococcus aureus [4] = test: Inhibition of protein biosynthesis in Staphylococcus aureus
[5] = biological target: T1, Oxysterols receptor LXR-beta (Homo sapiens, UniProt P55055); test: Displacement of [3H2]F3-methyl AA from LXRbeta by scintillation proximity assay
T1 sequence (P55055 whole entry): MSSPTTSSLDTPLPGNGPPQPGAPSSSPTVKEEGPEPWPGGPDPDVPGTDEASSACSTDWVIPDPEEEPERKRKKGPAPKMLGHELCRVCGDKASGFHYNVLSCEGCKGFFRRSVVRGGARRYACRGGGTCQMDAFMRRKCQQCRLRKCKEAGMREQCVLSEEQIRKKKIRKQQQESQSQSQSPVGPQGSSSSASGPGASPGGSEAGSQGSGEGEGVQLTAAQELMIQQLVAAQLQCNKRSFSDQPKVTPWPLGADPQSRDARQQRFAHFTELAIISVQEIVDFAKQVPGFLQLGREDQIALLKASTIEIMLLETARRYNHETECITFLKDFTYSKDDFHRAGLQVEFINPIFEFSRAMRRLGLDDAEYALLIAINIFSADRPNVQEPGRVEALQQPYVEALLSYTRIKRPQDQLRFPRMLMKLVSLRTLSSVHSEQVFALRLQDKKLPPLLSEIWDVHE

Staphylococcus aureus [6] = test: Inhibition of phospholipid biosynthesis in Staphylococcus aureus
[7] = biological target: T2, Oxysterols receptor LXR-alpha (Homo sapiens, UniProt Q13133); test: Displacement of [3H2]F3-methyl AA from LXRalpha by scintillation proximity assay
T2 sequence (Q13133 whole entry): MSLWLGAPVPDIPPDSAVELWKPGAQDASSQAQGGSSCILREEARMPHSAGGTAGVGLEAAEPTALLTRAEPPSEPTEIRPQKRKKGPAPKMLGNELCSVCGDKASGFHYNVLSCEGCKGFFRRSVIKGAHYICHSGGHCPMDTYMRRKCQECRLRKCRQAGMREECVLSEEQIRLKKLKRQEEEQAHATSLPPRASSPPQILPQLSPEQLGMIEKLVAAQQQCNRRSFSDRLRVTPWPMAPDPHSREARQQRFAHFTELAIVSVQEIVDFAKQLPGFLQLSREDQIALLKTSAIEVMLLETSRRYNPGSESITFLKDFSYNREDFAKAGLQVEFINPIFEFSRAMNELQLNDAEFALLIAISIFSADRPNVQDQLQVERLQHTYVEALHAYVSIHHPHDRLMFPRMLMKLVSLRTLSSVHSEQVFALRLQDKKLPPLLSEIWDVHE

Staphylococcus aureus [8] = test: Inhibition of RNA biosynthesis in Staphylococcus aureus
Staphylococcus aureus [9] = test: Inhibition of DNA biosynthesis in Staphylococcus aureus

`O=C(N[C@H](CO)[C@H](O)c1ccc([N+](=O)[O-])cc1)C(Cl)Cl` [CHLORAMPHENICOL] gave an MIC (Enterococcus faecium) of 6.25 µg/mL (≈ 19.3 µM), an MIC (Enterococcus faecalis) of 1.56 µg/mL (≈ 4.83 µM) and an MIC (Staphylococcus aureus [1]) of 6.25 µg/mL (≈ 19.3 µM). The MIC (Escherichia coli) was 1.56 µg/mL (≈ 4.83 µM), the IC50 (Staphylococcus aureus [2]) was > 250 µg/mL and the MIC (Streptococcus pneumoniae) was 1.56 µg/mL (≈ 4.83 µM). The MIC (Staphylococcus aureus [3]) was 6.25 µg/mL (≈ 19.3 µM).

`Cc1cc(O)cc2c1[C@@H]1O[C@@](C)(Cc3cc4c(c(O)c31)C(=O)c1c(O)cc(O)cc1C4(C)C)O2` showed an MIC (Enterococcus faecium) of 0.5 µg/mL (≈ 1.09 µM), an MIC (Enterococcus faecalis) of 1 µg/mL (≈ 2.17 µM) and an MIC (Staphylococcus aureus [1]) of 1 µg/mL (≈ 2.17 µM). It also gave an MIC (Escherichia coli) of 1 µg/mL (≈ 2.17 µM), an IC50 (Staphylococcus aureus [2]) of 245 µg/mL (≈ 532 µM) and an MIC (Streptococcus pneumoniae) of 1 µg/mL (≈ 2.17 µM). The MIC (Staphylococcus aureus [3]) was 0.5 µg/mL (≈ 1.09 µM).

Work on `COc1cc(C)c2c(c1)O[C@@]1(C)Cc3cc4c(c(O)c3[C@@H]2O1)C(=O)c1c(O)c(Cl)c(O)c(Cl)c1C4(C)C` yielded an MIC (Enterococcus faecium) of 2 µg/mL (≈ 3.68 µM), an MIC (Enterococcus faecalis) of 1 µg/mL (≈ 1.84 µM) and an MIC (Staphylococcus aureus [1]) of 0.5 µg/mL (≈ 0.92 µM). The IC50 (Staphylococcus aureus [4]) was 0.21 µg/mL (≈ 0.386 µM), the MIC (Escherichia coli) was 0.5 µg/mL (≈ 0.92 µM) and the IC50 [5] was > 15 µM. For the same compound, the IC50 (Staphylococcus aureus [6]) was 0.21 µg/mL (≈ 0.386 µM), the IC50 [7] was 10 µM and the IC50 (Staphylococcus aureus [2]) was 11.4 µg/mL (≈ 21 µM). It also gave an MIC (Streptococcus pneumoniae) of 1 µg/mL (≈ 1.84 µM), an IC50 (Staphylococcus aureus [8]) of 0.21 µg/mL (≈ 0.386 µM) and an MIC (Staphylococcus aureus [3]) of 1 µg/mL (≈ 1.84 µM). For the same compound, the IC50 (Staphylococcus aureus [9]) was 0.21 µg/mL (≈ 0.386 µM).

Compound `CO[C@H]1/C=C/O[C@@]2(C)Oc3c(C)c(O)c4c(O)c(c(/C=N/N5CCN(C)CC5)c(O)c4c3C2=O)NC(=O)/C(C)=C\C=C\[C@H](C)[C@H](O)[C@@H](C)[C@@H](O)[C@@H](C)[C@H](OC(C)=O)[C@@H]1C` [RIFAMPIN] has an MIC (Enterococcus faecium) of 0.04 µg/mL (≈ 0.0486 µM), an MIC (Enterococcus faecalis) of 0.008 µg/mL (≈ 0.00972 µM) and an MIC (Staphylococcus aureus [1]) of 0.002 µg/mL (≈ 0.00243 µM). For the same compound, the MIC (Escherichia coli) was 0.02 µg/mL (≈ 0.0243 µM), the IC50 (Staphylococcus aureus [2]) was > 250 µg/mL and the MIC (Streptococcus pneumoniae) was 0.004 µg/mL (≈ 0.00486 µM). It also gave an MIC (Staphylococcus aureus [3]) of 0.002 µg/mL (≈ 0.00243 µM).

Work on `Cc1cc(O)cc2c1[C@H]1O[C@](C)(Cc3cc4c(c(O)c31)C(=O)c1c(O)cc(O)cc1C4(C)C)O2` yielded an MIC (Enterococcus faecium) of 2 µg/mL (≈ 4.34 µM), an MIC (Enterococcus faecalis) of 0.5 µg/mL (≈ 1.09 µM) and an MIC (Staphylococcus aureus [1]) of 2 µg/mL (≈ 4.34 µM). It also gave an IC50 (Staphylococcus aureus [4]) of 1 µg/mL (≈ 2.17 µM), an MIC (Escherichia coli) of 2 µg/mL (≈ 4.34 µM) and an IC50 (Staphylococcus aureus [6]) of 1 µg/mL (≈ 2.17 µM). It also gave an IC50 (Staphylococcus aureus [2]) of 288 µg/mL (≈ 625 µM), an MIC (Streptococcus pneumoniae) of 1 µg/mL (≈ 2.17 µM) and an IC50 (Staphylococcus aureus [8]) of 1 µg/mL (≈ 2.17 µM). The MIC (Staphylococcus aureus [3]) was 2 µg/mL (≈ 4.34 µM) and the IC50 (Staphylococcus aureus [9]) was 1 µg/mL (≈ 2.17 µM).
